Reference: patent US20120308663A1, “LIPID NANOCAPSULES, METHOD FOR PREPARING SAME AND USE THEREOF AS A DRUG” (priority 2009, published 2012)

How the values were obtained:
rats = details: in rats; cited from earlier work
HT-29 cells = format: cell-based
Procedure: The IC50 was calculated as being the concentration of SN38-LNCs, of SN38 or unloaded LNCs causing 50% cell death.

mice = details: in mice, intravenously; cited from earlier work

Molecule: CCOCCOCCO [Transcutol®HP, diethyleneglycol monoethyl ether]
- DL50 (rats): > 5 g/kg

Molecule: CCc1c2c(nc3ccc(O)cc13)-c1cc3c(c(=O)n1C2)COC(=O)[C@]3(O)CC [free SN38, 7-ethyl-10-hydroxycamptothecin]
- Cytotoxicity relative to CPT11 (times greater) (HT-29 cells): approximately 250 times

Molecule: polyethyleneglycol-660 2-hydroxystearate [Solutol® HS 15]
- DL50 (mice): > 3.16 g/kg
